From patent publication US8372408B2, “Use of Phaeodactylum algae extract for depigmenting the skin” (LVMH Recherche, priority 2007, dated 2013)
Residues, ends and D or L forms follow the SMILES beside them. *: point of attachment. Cbz = O=C(OCc1ccccc1)*

Assays:
[1] = biological target: T1, proteasome (chymotrypsin-like activity) of MNT1 cells (Homo sapiens, UniProt P28074); assay: Proteasome LLVY (chymotrypsin-like) activity assay on lyzates of treated MNT1 cells; type: cell-based; settings: for chymotrypsin-like peptidase activity of the proteasome, change in words: 72 hours after addition, MNT-1 melanocytes, FIG. 1A; for Proteasome activity at 72 hours, Chymotrypsin-like: MNT1 cells lyzed 72 hours after treatment, palmitic or linoleic acid 25 μM, Phaeodactylum 5 μg/ml, Mg132 120 nM where stated
T1 construct: introduce in duplicate a fixed volume of cell lyzate; endogenous in cells; host or cells: MNT1 human melanocyte line (lysate)
T1 sequence (P28074 60-263): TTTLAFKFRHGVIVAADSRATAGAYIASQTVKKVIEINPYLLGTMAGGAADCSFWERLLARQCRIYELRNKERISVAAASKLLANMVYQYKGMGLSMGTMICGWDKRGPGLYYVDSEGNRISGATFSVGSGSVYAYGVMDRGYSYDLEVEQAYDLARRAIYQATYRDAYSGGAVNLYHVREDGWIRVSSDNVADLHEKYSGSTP
Description: 2.1 Treatment of MNT1 Cells (Human Melanocyte Cell Lines) in Order to Assay the Proteasome and Tyrosinase Activities MNT1, 10^6 cells/dish 35 mm in diameter, in triplicate
Treatment on D1 • Linoleic acid 25 μM • Palmitic acid 25 μM • Phaeodactylum 5 μg/ml +1% BSA+Vitamin E 50 μM+Vitamin C 1 mM • Linoleic acid 25 μM • Palmitic acid 25 μM • Phaeodactylum 5 μg/ml Stirring with a magnetic bar at 37° C. for 1 hour • 2nd treatment on D4 +Cycloheximide 1 μg/ml (protein synthesis inhibitor)
+120 nM Mg132 for the assay of the tyrosinase activity. • Preparation of the lyzates after 4 hours 2 rinses with PBS (phosphate-buffered saline)
On a bed of ice; recovery in 150 μl of lysis buffer by scraping.
Freezing at […]. • Protein assay via the Bradford method • Proteasome activity assay The cells are rinsed twice with PBS and each peptidase activity of the proteasome is then determined by using a fluorogenic peptide substrate specific for each of the activities, in the presence and in the absence of a specific proteasome inhibitor, MG 132 (Leu-Leu-Leucinal). The peptide substrate products are the following: Leu-Leu-Val-Tyr-amc (LLVY-amc) for the chymotrypsin-like activity, Leu-Leu-Glu-na (LLE-na) for the post-glutamic hydrolase activity and Leu-Ser-Thr-Arg-amc (LSTR-amc) for the trypsin-like activity. The principle of the assay consists in monitoring over time the increase in fluorescence due to the release of the fluorophores aminomethylcoumarin or β-naphthylamine from the fluorogenic peptides. […]
a) LLVY activity (chymotrypsin-like) a.1—Principle • Proteasome (LLVY activity • (chymotrypsin-like)) N-Succinyl-LLVY-MCA→N-Succinyl-LLVY+MCA fluorescent Reading with a spectrofluorimeter at an excitation wavelength of 350 nm and an emission wavelength of 440 nm.
The process is performed as follows: • Into a 96-well plate, introduce in duplicate a fixed volume of cell lyzate (determined from the lowest protein concentration of the samples, which should correspond to 20 μg of protein) and make up to 100 μl with TRIS buffer. • Add 100 μl of LLVY-MCA substrate prediluted to 25 μM in the TRIS buffer (12.5 μM final). • take the spectrofluorimeter readings at an excitation wavelength of 355 nm and an emission wavelength of 460 nm with a gain of 40, every 2 minutes for 30 minutes.
The raw results are expressed in F.U./minute, F.U. denoting the values supplied by the machine, expressed in fluorescence units.
The assay is performed on 200 μl of reaction volume containing a volume V of cell lyzate set as a function of the protein concentrations of the lyzates.
From the calibration range, the activity may be expressed as follows, in pmol of MCA released/minute/mg of protein: […]
For the assay of the proteasome activities, the cells were lyzed at 72 hours after the cell treatment, and the protein concentration was determined.

[2] = tested on: tyrosinase in B16F10 cells; settings: cited from earlier work; for proteasome-dependent degradation of tyrosinase: B16F10 cells, Ando H. et al., J. Biol. Chem. (2004); for amount of melanin: melanocyte culture, previous study
[3] = tested on: 20S and 26S forms of the proteasome in MNT-1 melanocyte line; assay: Anti-proteasome western blot of treated MNT1 cells; type: cell-based, human; settings: lysis of MNT-1 24 hours and 72 hours after treatment, FIGS. 2A and 2B
Description: (§1) 2.2 Treatment of MNT1 in Order to Assay the Proteasome, the Ubiquitin Proteins and the Tyrosinase by Western Blotting
(§2) 10^6 MNT1 cells/dish 35 mm in diameter, in quadruplicate
(§3) Treatment on D1 • Linoleic acid 25 μM • Palmitic acid 25 μM • Phaeodactylum 5 μg/ml
(§4) +1% bovine serum albumin (BSA)+Vitamin E (Vitamin E) 50 μM+Vitamin C (Vitamin C) 1 mM • Linoleic acid 25 μM • Palmitic acid 25 μM • Phaeodactylum 5 μg/ml
(§5) Preparation of the Lyzates on D2, D3 and D4
(§6) Recovery of the cell lawn in 150 μl of Laemmli 2× buffer+1% DTT (10 mM) by scraping.
Electrophoresis of the proteins is performed in a polyacrylamide minigel 1 mm to […] thick, under denaturing and reducing conditions, in batch buffer according to the Laemmli method (1970). […]
(§7) The bands are quantified by means of the Gels Analysts 3.01 software.
In parallel, using specific antibodies, the 20S and 26S forms of the proteasome were quantified by western blotting.
For the purpose of determining the cause of this activation of the peptidase activities of the proteasome, we evaluated via the western blotting technique the amount of proteasome in the homogenates obtained from the lysis of MNT-1 24 hours and 72 hours after their treatment with extracts of the alga Phaeodactylum tricornutum, with fatty acids, or with a proteasome-dependent proteolysis inhibitor Mg132).

[4] = tested on: ubiquitin proteins in MNT-1 melanocyte line; assay: Anti-ubiquitin western blot of treated MNT1 cells; type: cell-based, human; settings: 24 hours or 72 hours after treatment, FIG. 3A, 3B
Description: as §1, §2, §3, §4, §5, §6
Electrophoresis of the proteins is performed in a polyacrylamide minigel 1 mm to […] thick, under denaturing and reducing conditions, in batch buffer according to the Laemmli method (1970). The gels containing 12% T, 2.7% C allow separation of the low molecular weight proteins ranging from 20 to 120 kDa. The gels containing 8% T; 2.7% C allow separation of the high molecular weight proteins from 35 to 250 kDa.
Next, this membrane is placed in contact with the primary antibody diluted to the optimum concentration in PBS-T with or without 5% milk (m/v) depending on the antibody, for 1 hour with stirring at room temperature or overnight at 4° C.
Under the action of peroxidase and an amplifier, the luminol is oxidized and goes into a transient excited state. […]
as §7

| chymotrypsin-like peptidase activity of the proteasome, change in words [1] | Proteasome activity at 72 hours, Chymotrypsin-like [1] [pmol/min/mg] | SMILES | proteasome-dependent degradation of tyrosinase [2] | amount of melanin [2] | amount of proteasome (expression or distribution of the 20S and 26S forms) [3] | level of ubiquitin proteins [4] |
| --- | --- | --- | --- | --- | --- | --- |
| increase and do so significantly | 6.3 ± 0.37 | CCCCC/C=C\C/C=C\CCCCCCCC(=O)O [Linoleic acid] | stimulated | decrease | does not modify | not affected |
| – | 3 ± 0.3 | CC(C)C[C@@H](C=O)NC(=O)[C@H](CC(C)C)NC(=O)[C@H](CC(C)C)NC(=O)OCc1ccccc1 [Control + Mg132, Z-Leu-Leu-Leu-CHO] (Cbz-Leu-Leu-Leu-aldehyde) | – | – | – | – |
| reduced | 3 ± 0.37 | CCCCCCCCCCCCCCCC(=O)O [Palmitic acid] | reduced | inverse effect | – | – |
